Reference: US9173391B2, “Crystalline complexes of 4-hydroxy benzoic acid and selected pesticides” (BASF SE, priority 2009, dated 2015)
≈ marks a conversion by molar mass, not a printed value.

Assay: physchem
Settings: water, thermodynamic from solid

C/C(=N\C#N)N(C)Cc1ccc(Cl)nc1 [crystalline acetamiprid, acetamiprid]
solubility at 24 h: 2750 µg/mL (≈ 12.3 mM)
